For 5 compounds, IC50 results are on record in patent EP1964834A1, “Sulphonyltryptophanols” (Bayer Schering Pharma Aktiengesellschaft, priority 2007, dated 2008).

This assay has as its target T1, human FSH receptor (Homo sapiens, UniProt P23945).
T1 construct: expressed in transfected cells; host or cells: CHO cells (hFSHR clone 16)
T1 sequence (P23945 18-695): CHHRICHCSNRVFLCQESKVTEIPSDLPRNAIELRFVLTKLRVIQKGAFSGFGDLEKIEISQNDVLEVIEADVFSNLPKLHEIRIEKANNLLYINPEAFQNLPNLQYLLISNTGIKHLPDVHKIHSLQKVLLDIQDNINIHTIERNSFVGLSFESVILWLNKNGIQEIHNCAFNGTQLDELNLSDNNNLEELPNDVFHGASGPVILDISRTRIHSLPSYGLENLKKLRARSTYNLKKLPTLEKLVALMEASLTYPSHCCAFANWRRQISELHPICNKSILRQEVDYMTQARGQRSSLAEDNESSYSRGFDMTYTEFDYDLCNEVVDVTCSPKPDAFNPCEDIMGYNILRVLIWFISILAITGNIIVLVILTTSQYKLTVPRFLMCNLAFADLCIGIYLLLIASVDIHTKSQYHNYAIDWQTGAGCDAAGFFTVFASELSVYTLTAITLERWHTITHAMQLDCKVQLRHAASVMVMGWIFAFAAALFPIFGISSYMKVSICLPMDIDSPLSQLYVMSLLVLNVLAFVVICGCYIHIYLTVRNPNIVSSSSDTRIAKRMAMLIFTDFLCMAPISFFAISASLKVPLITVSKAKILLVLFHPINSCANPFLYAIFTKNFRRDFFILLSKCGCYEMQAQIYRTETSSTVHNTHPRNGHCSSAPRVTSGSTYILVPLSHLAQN
The assay is described as follows: HTRF assay for measuring cAMP in cells (FSH antagonism). To be noted: FSH antagonistic effect; hFSHR clone 16 cells (CHO cells stably transfected with the human FSH receptor); in the presence of 1 e-9 mol/I hFSH; 37°C for 2h. The format is cell-based. How it is done: HTRF assay for measuring cAMP in cells
The method is based on a competitive immunoassay between native cAMP, which has been produced by the cells, and cAMP which is labelled with cAMPD2 conjugate. The tracer binding was visualized by a monoclonal antibody, anti-cAMP labelled with cryptate [HTRF = homogeneous time-resolved fluorescence]. The specific signal is inversely proportional to the cAMP concentration of the samples employed. The 665nm/ 620nm fluorescence ratio was evaluated.
The following material was used: 96-well plates for the tissue culture, 96-well plates with black edge and black base (e.g. Fluotrac 600 from Greiner), 96-well plates for the substance dilutions of polypropylene and cAMP Femtomolar (4000wells Kit, CIS Bio International # 62AM5PEJ). The following reagents were used: BSA (bovine serum albumin) Fraction V protease-free, IBMX (3-isobutyl-1-methylxanthine), hFSH (human follicle stimulating hormone), Triton X-100 analytical grade, potassium fluoride analytical grade, G 418 (Geneticin) and Accutase. • Buffer 1 (washing and testing buffer) contained PBS, 1 mM CaCl2, 1 mM MgCl2, 0.2% glucose; 0.1% BSA, 1 mM IBMX. • Buffer 2 (2x lysis buffer) contained 1% Triton X-100 in PBS (without CaCl2 and MgCl2). • Buffer 3 (assay buffer) contained 50 mM potassium phosphate buffer (pH 7.0); 800 mM potassium fluoride; 0.2% BSA (always added fresh).
On day 1, the cells were seeded in 96-well plates (3x10^4 cells per well hFSHR clone 16 cells (CHO cells stably transfected with the human FSH receptor in 150 µl of medium). The next day, test substance dilutions were made up. For this purpose, all the substances were diluted in ice-cold buffer 1 (with or without hFSH), and the substance dilutions were placed on ice until applied to the cells.
The cell supernatant was then aspirated off, and the cells were washed 2x with 200 µl of buffer 1. The cells were treated with 60 µl of the appropriate substance concentrations at 37°C for 2h. The cells were then lysed with 60 µl of buffer 2 (put onto the supernatant) (on a plate shaker at RT for 30 min).
The test conjugates (cAMP-D2 and anti-cAMP cryptate, CIS Bio) were diluted in buffer 3 in accordance with the manufacturers' information. The actual mixture for measurement was pipetted into a black 96-well plate (in each case 15 µl of the cell lysate diluted with 35 µl of buffer 1; firstly 25 µl of cAMP-D2 conjugate were pipetted and, after 10 min, 25 µl of the anti-cAMP cryptate were added). This is followed by incubation at RT for 90 minutes. The measurement was carried out in a PheraStar (BMG).
1) hFSHr clone 16 Ham's F12 PSG 10% FCS 700 µg/ml G 418 (Geneticin) from PAA.
Dose-effect curve (hFSH) for the human receptor: 1e-8, 3e-9, 1e-9, 3e-10, 1e-10, 3e-11, 1e-11, 3e-12 mol/l.
The test substances were employed in suitable dilutions in the absence (test for agonism) and in the presence of 1 e-9 mol/I hFSH.
The values of the well ratio were averaged and then entered directly in SigmaPlot versus the concentrations. The maximum and minimum values were determined for each plate, and half the difference is to be regarded as IC50.
In general terms: Time-resolved FRET reads energy transfer from a long-lived donor to a nearby acceptor.
Regarding `COc1ccc(-c2cc(OC)c(OC)c(OC)c2)cc1S(=O)(=O)N[C@@H](CO)Cc1c[nH]c2ccccc12` [Example 1, 4,3',4',5'-Tetramethoxy-biphenyl-3-sulfonic acid [(R)-2-hydroxy-1-(1H-indol-3-ylmethyl)-ethyl]-amide], the IC50 (commonly the midpoint of a concentration-inhibition curve) is 3.5 µM.
On to `CNC(=O)c1ccc(-c2ccc(OC)c(S(=O)(=O)N[C@@H](CO)Cc3c[nH]c4ccccc34)c2)cc1Cl` [Example 3, 3-Chloro-3'-[(R)-2-hydroxy-1-(1H-indol-3-ylmethyl)-ethylsulfamoyl]-4'-methoxybiphenyl-4-carboxylic acid me-thylamide], for which the IC50 came out at 4 µM.
`CNC(=O)c1ccc(-c2ccc(OC(C)C)c(S(=O)(=O)N[C@@H](CO)Cc3c[nH]c4ccccc34)c2)cc1Cl` [Example 9, 3-Chloro-3'-[(R)-2-hydroxy-1-(1H-indol-3-ylmethyl)-ethylsulfamoyl]-4'-isopropoxybiphenyl-4-carboxylic acid methylamide]: the IC50 came out at 0.18 µM.
Turning to `CNC(=O)c1ccc(C#Cc2ccc(OC)c(S(=O)(=O)N[C@@H](CO)Cc3c[nH]c4ccccc34)c2)cc1` [Example 18, 4-{3-[(R)-2-Hydroxy-1-(1H-indol-3-ylmethyl)-ethylsulfamoyl]-4-methoxyphenylethynyl}-N-methyl-benzamide], the IC50 stood at 2.5 µM.
For `CNC(=O)c1ccc(C#Cc2ccc(OC)c(S(=O)(=O)N[C@H](Cc3c[nH]c4ccccc34)C(C)(C)O)c2)cc1` [Example 22, 4-{3-[(R)-2-Hydroxy-1-(1H-indol-3-ylmethyl)-2-methyl-propyisulfamoyl]-4-methoxyphenylethynyl}-N-methyl-benzamide], the IC50 amounted to 3.5 µM.
